Assay [1] addresses T1, DPP-4 (human recombinant) (Homo sapiens, UniProt P27487).
T1 construct: purchased Sigma Aldrich D3446
The assay is described as follows: Inhibition kinetic analysis (V vs [DPP-4], Lineweaver-Burk, Dixon and Cornish-Bowden plots). The assay is classed as biochemical. The conditions noted are these: for Kiu (uncompetitive inhibition constant): Cornish-Bowden equation; for Ki: Dixon equation, read-out: Kic (competitive inhibition constant); for Inhibition type: Lineweaver-Burk, Dixon and Cornish-Bowden plots, Gly-Pro-AMC 50–200 μM, DPP-4 0.42 mU/mL; for reversibility of the inhibition: plots of V vs [DPP-4] 0.21–0.84 mU/mL, 200 μM Gly-Pro-AMC; for 1/Kiu: reciprocal of uncompetitive inhibition constant.

Assay [2] concerns the target T1, DPP-4 (human recombinant). Put plainly: Fluorescence quenching experiments (Stern-Volmer, binding constant, thermodynamic parameters).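 As to all read-outs here: intrinsic DPP-4 fluorescence emission scanned 290–500 nm, corrected for flavonoid background and inner-filter absorbance, compared without versus with flavonoid quencher.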 The conditions noted are these: for Kq (quenching rate constant): τ0 10^−8 s; for ΔH (enthalpy change) / ΔS (entropy change): from Kb at 298 and 310 K.
In assay [3] the test system is DPP-4. Further details: method as in PMID 33063510. To be noted: different DPP-IV inhibitor screening assay kit; cited from earlier work.
The target in assay [4] is T1, DPP-4 (human recombinant). The assay is described as follows: In vitro assay for DPP-4 inhibitory activity (fluorescence, Gly-Pro-AMC).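 As to all read-outs here: fluorescence of released AMC (excitation 360 nm, emission 460 nm) followed kinetically over 30 min at 37 °C in Tris-HCl pH 8.0.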 The assay is classed as biochemical. To be noted: for IC50: DPP-4 inhibition, fluorescence method; for % Inhibition at 200μM / inhibition at 200 µM: flavonoid 200 μM, mean ± SD, three independent experiments; for inhibition at 200 µM: read-out: % Inhibition at 200μM.

Assay [5] relates to DPP-4. Details: method as in PMID 31441917. To be noted: test concentration of 200 μM; cited from earlier work.

By IC50 is commonly meant the concentration that inhibits the measured activity by half. Broadly, the % Inhibition is the relative decrease from the control value, in per cent. A word on the inhibition: it is the share of the control response that was lost under treatment.

Each structure is given as a SMILES string. Values joined by “and” are separate entries in the source; they are usually repeats but may differ in a detail not shown here. Equal entries are not always repeated.

T1 sequence (P27487 whole entry): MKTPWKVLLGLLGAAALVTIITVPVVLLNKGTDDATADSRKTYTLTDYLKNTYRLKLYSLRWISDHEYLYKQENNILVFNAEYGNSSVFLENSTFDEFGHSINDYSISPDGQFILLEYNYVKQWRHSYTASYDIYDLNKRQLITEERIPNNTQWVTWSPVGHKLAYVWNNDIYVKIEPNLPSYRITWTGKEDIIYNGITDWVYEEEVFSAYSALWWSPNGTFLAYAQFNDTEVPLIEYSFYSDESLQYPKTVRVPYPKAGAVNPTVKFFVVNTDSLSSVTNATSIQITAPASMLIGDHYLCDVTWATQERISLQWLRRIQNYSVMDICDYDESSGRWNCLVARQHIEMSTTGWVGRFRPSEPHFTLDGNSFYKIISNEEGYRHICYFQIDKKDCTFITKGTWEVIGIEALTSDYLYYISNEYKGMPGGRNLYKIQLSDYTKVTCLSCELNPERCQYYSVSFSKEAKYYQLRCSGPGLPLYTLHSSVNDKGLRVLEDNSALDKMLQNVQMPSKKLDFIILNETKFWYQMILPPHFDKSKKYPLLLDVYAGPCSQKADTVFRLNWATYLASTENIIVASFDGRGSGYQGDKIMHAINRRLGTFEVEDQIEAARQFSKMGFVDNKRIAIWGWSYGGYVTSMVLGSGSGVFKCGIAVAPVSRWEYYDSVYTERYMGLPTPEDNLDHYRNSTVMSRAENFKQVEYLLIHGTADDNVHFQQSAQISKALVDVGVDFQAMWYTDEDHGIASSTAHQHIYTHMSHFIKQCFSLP

Take `OCC1OC(Oc2cc3c(O)cc(O)cc3[o+]c2-c2ccc(O)c(O)c2)C(O)C(O)C1O` (stereo not shown) [F2, Cyanidin 3-O-glucoside chloride]: in assay [1], the “Kiu (uncompetitive inhibition constant)” value is 18.37 ± 0.24 10^−5 mol L^−1, the Ki was determined as 74.3 ± 1.2 µM, the Inhibition type entry is “Mixed” and the “reversibility of the inhibition” value is “reversible”. In addition, the 1/Kiu in assay [1] was 0.57 ± 0.03 10^4 L mol^−1. In assay [2] (298 K), the “KSV (Stern-Volmer quenching constant)” value is reported as 3.64 ± 0.04 ×10^4 L mol^−1, the “n (number of binding sites)” value worked out at 1.05 ± 0.01, the “ΔG (Gibbs free-energy change)” value was -6.577 kcal/mol and the “Kq (quenching rate constant)” value was 3.64 ± 0.04 ×10^12 L mol^−1 s^−1. Further, in assay [2] (310 K), the “KSV (Stern-Volmer quenching constant)” value was 3.08 ± 0.06 ×10^4 L mol^−1, the “n (number of binding sites)” value came to 1.04 ± 0.01 and the “Kq (quenching rate constant)” value is on record as 3.08 ± 0.06 ×10^12 L mol^−1 s^−1. For the same compound, in assay [2], the “ΔH (enthalpy change)” value was -1.971 kcal/mol and the “ΔS (entropy change)” value is recorded as 64.68 J mol^−1K^−1. Also, the half-inhibitory concentration (IC50) with DPP-4 [3] was 8.26 µM. For the same compound, in assay [4], the IC50 came out at 81.1 ± 4.14 µM, the “% Inhibition at 200μM” value amounted to 68.05 ±0.15% and the inhibition at 200 µM was above 50%. Moreover, the “inhibitory percentage relative to cyanidin (F1)” value in assay [4] (ratio of % inhibition at 200 μM, cyanidin 3-O-glucoside vs cyanidin) was 3.62 times.

For the compound `O=c1cc(-c2ccc(O)cc2)oc2cc(O)cc(O)c12` [A1, Apigenin], the inhibitory percentage with DPP-4 [5] is 44 ± 2%. In addition, in assay [4], the inhibition at 200 µM was 46.4 ± 1.49%.

On to `O=C(/C=C/c1ccc(O)cc1)c1ccc(O)cc1O` [G1, Isoliquiritigenin], for which, in assay [1], the “Kiu (uncompetitive inhibition constant)” value was 26.7 ± 0.34 10^−5 mol L^−1 and the Ki turned out to be 98.2 ± 3.4 µM. In addition, the “ΔH (enthalpy change)” value in assay [2] is -1.901 kcal/mol. In assay [4], the IC50 is 150 µM and < 200 µM; the inhibition at 200 µM was above 50%.

Turning to `O=c1c(O)c(-c2ccc(O)c(O)c2)oc2cc(O)cc(O)c12` [E23, Quercetin], in the assay with DPP-4 [5], the inhibitory percentage is 46 ± 2%. The inhibition at 200 µM in assay [4] is 39.4 ± 0.58%. The “inhibitory percentage relative to rhamnetin (E27)” value in assay [4] (ratio of % inhibition at 200 μM, quercetin vs rhamnetin) amounted to 1.77 times.

`O=C1c2c(O)cc(O)cc2OC(c2ccc(O)c(O)c2)C1O` (stereo not shown) [C8, Taxifolin]: the inhibitory percentage entry in the assay with DPP-4 [5] is “lower than 20%”. Moreover, the inhibition at 200 µM in assay [4] was 19.9 ± 0.65%.

For `COc1cc(-c2oc3cc(O)cc(O)c3c(=O)c2O[C@@H]2O[C@H](CO[C@@H]3O[C@@H](C)[C@H](O)[C@@H](O)[C@H]3O)[C@@H](O)[C@H](O)[C@H]2O)ccc1O` [E21, Narcissoside], in assay [1], the “Kiu (uncompetitive inhibition constant)” value is on record as 22.3 ± 0.15 10^−5 mol L^−1, the Ki amounted to 116 ± 2.1 µM, the Inhibition type result is “Mixed” and the “reversibility of the inhibition” value is listed as “reversible”. Moreover, the 1/Kiu in assay [1] is 0.44 ± 0.03 10^4 L mol^−1. Further, the 1/Kic in assay [1] (reciprocal of competitive inhibition constant) was 0.86 ± 0.02 10^4 L mol^−1. For the same compound, in assay [2] (298 K), the “KSV (Stern-Volmer quenching constant)” value is recorded as 7.212 ± 0.01 ×10^4 L mol^−1, the “n (number of binding sites)” value is recorded as 1.22 ± 0.02, the “ΔG (Gibbs free-energy change)” value is -8.059 kcal/mol and the “Kq (quenching rate constant)” value was 7.212 ± 0.01 ×10^12 L mol^−1 s^−1. In addition, in assay [2] (310 K), the “KSV (Stern-Volmer quenching constant)” value was 6.389 ± 0.01 ×10^4 L mol^−1, the “n (number of binding sites)” value worked out at 1.21 ± 0.02, the “ΔG (Gibbs free-energy change)” value is -8.305 kcal/mol and the “Kq (quenching rate constant)” value was 6.389 ± 0.01 ×10^12 L mol^−1 s^−1. Moreover, in assay [2], the “ΔH (enthalpy change)” value is -1.937 kcal/mol and the “ΔS (entropy change)” value is reported as 85.93 J mol^−1K^−1. Further, in assay [4], the IC50 was 167 µM and < 200 µM; the “% Inhibition at 200μM” value is 57.50 ±1.28%; the inhibition at 200 µM is above 50%.

For the compound `O=C1C[C@@H](c2ccc(O)cc2)Oc2cc(O)cc(O)c21` [C6, Naringenin], in the assay on DPP-4 [5], the inhibitory percentage result is on record as “lower than 20%”. For the same compound, the inhibition at 200 µM in assay [4] was below 10%.

Turning to `O=c1c(O[C@@H]2O[C@H](CO)[C@H](O)[C@H](O)[C@H]2O)c(-c2ccc(O)c(O)c2)oc2cc(O)cc(O)c12` [E4, Hyperoside], in assay [1], the “Kiu (uncompetitive inhibition constant)” value is on record as 14.8 ± 0.22 10^−5 mol L^−1, the Inhibition type entry was “Mixed” and the “reversibility of the inhibition” value was “reversible”. In addition, in assay [2] (298 K), the “KSV (Stern-Volmer quenching constant)” value is listed as 4.83 ± 0.01 ×10^4 L mol^−1, the “n (number of binding sites)” value is 1.04 ± 0.02, the “ΔG (Gibbs free-energy change)” value was -6.6334 kcal/mol and the “Kq (quenching rate constant)” value is 4.83 ± 0.01 ×10^12 L mol^−1 s^−1. In assay [2] (310 K), the “KSV (Stern-Volmer quenching constant)” value is 4.08 ± 0.01 ×10^4 L mol^−1, the “n (number of binding sites)” value is listed as 1.03 ± 0.02, the “ΔG (Gibbs free-energy change)” value was -6.7641 kcal/mol and the “Kq (quenching rate constant)” value is recorded as 4.08 ± 0.01 ×10^12 L mol^−1 s^−1. Further, in assay [2], the “ΔH (enthalpy change)” value is -3.3815 kcal/mol and the “ΔS (entropy change)” value worked out at 45.66 J mol^−1K^−1. Also, in assay [4], the “% Inhibition at 200μM” value is recorded as 62.10 ±0.16% and the inhibition at 200 µM is above 50%.

Values taken from paper PMC9134086, “Inhibition of Dipeptidyl Peptidase-4 by Flavonoids: Structure–Activity Relationship, Kinetics and Interaction Mechanism” (Frontiers in Nutrition, 2022).
